Measurements as given in patent US7517889B2, “2,6-substituted-4-monosubstitutedamino-pyrimidine as prostaglandin D2 receptor antagonists” (Aventis Pharmaceuticals, Inc., priority 2004, dated 2009).

Each molecule was assayed against T1, DP receptor (Homo sapiens, UniProt Q13258) (assay: SPA cAMP assay in human LS174 T cells (human DP functional assay)). Conditions: inhibition of PGD2 (15 nM final) stimulated cAMP, LS174T cells expressing endogenous DP receptor.
T1 construct: the human cell line LS174T, which expresses the endogenous DP receptor; endogenous in cells; host or cells: LS174T human cell line
T1 sequence (Q13258 1-359): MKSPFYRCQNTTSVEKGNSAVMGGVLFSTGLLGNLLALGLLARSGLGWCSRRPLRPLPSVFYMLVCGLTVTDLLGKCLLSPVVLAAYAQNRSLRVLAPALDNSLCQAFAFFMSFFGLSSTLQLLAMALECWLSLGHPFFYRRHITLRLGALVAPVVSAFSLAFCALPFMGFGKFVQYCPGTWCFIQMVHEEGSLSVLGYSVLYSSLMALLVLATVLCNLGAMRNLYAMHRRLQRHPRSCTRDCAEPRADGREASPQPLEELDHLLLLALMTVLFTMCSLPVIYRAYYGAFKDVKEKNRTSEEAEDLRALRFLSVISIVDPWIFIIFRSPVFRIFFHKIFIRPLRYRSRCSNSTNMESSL
Type: cell-based
In short: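 LS174T cells with endogenous DP receptor, 45,000/well seeded overnight, exposed to compounds at 11 points for 15 min at 37 °C in buffer containing IBMX, with PGD2 stimulation.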

Row | Compound | IC50 [nM]
1 | COc1ccc(CCNc2cc(-c3ccc(C(F)F)s3)nc(OC)n2)cc1 [Example 12, [6-(5-Difluoromethyl-thiophen-2-yl)-2-methoxy-pyrimidin-4-yl]-[2-(4-methoxy-phenyl)-ethyl]-amine] | 11
2 | COc1nc(NCCc2ccc(Cl)cc2Cl)cc(-c2cccc(C(C)(C)C(=O)N3CCOCC3)c2)n1 [Example 95(c), 2-(3-{6-[2-(2,4-Dichloro-phenyl)-ethylamino]-2-methoxy-pyrimidin-4-yl}-phenyl)-2-methyl-1-morpholin-4-yl-propan-1-one] | 281
3 | CCNC(=O)Nc1cccc(-c2cc(NCCc3ccc(OC)cc3)nc(OC)n2)c1 [Example 41, 1-Ethyl-3-(3-{2-methoxy-6-[2-(4-methoxy-phenyl)-ethylamino]-pyrimidin-4-yl}-phenyl)-urea] | 7.6
4 | COc1ccc(CCNc2cc(-c3ccc(F)c(/C=N\O)c3)nc(OC)n2)cc1 [Example 26, 2-Fluoro-5-{2-methoxy-6-[2-(4-methoxy-phenyl)-ethylamino]-pyrimidin-4-yl}-benzaldehyde oxime] | 4.5
